Measured values taken from article PMC7287908, “N-Alkyl-2-[4-(trifluoromethyl)benzoyl]hydrazine-1-carboxamides and Their Analogues: Synthesis and Multitarget Biological Activity” (Molecules, 2020).
Values after ≈ are worked out from the molar mass of the structure shown. Where two headings read alike, the source gives them in different places.

Assays:
[1] = target: T1, AChE from electric eel (EeAChE) (Electrophorus electricus, UniProt O42275); experiment: biochemical; conditions: for IC50: electric eel AChE, mean ± SD, n = three independent experiments; for Selectivity BuChE/AChE (selectivity index, SI): ratio of IC50 for BuChE/IC50 for AChE
T1 construct: Acetylcholinesterase used was obtained from electric eel (Electrophorus electricus L; EeAChE); purchased Sigma-Aldrich (Prague, Czech Republic); host or cells: electric eel (natural source)
Method: (§1) Newly synthesized N-alkyl-2-[4-(trifluoromethyl)benzoyl]hydrazine-1-carboxamides 2a–2q were evaluated for their in vitro potency to inhibit AChE from electric eel (EeAChE) and BuChE from equine serum (EqBuChE) using modified Ellman’s spectrophotometric method. […] The efficacy of inhibitors is expressed as IC50, i.e., the concentration causing 50% inhibition of the enzyme activity. Based on IC50 values for both enzymes, selectivity indexes (SI) as the ratio of IC50 for BuChE/IC50 for AChE to quantify the preference for AChE were calculated (Table 1).
(§2) IC50 values were determined using the spectrophotometric Ellman’s method modified according to Zdražilová et al., which is a simple, rapid and direct method to determine the SH and -S-S- group content. This method is widely used for the screening of the efficiency of cholinesterases inhibitors. The enzymatic activity is measured indirectly by quantifying the concentration of the 5-thio-2-nitrobenzoic acid ion formed in the reaction between the thiol reagent 5,5′-dithio-bis(2-nitrobenzoic acid) and thiocholine, a product of acetylthiocholine substrate hydrolysis by cholinesterases.
(§3) The enzyme activity in final reaction mixture (2000 µL) was 0.2 U/mL, concentration of acetylthiocholine (or butyrylthiocholine) 40 µM and concentration of 5,5′-dithio-bis(2-nitrobenzoic acid) 0.1 mM for all reactions. The tested compounds were dissolved in DMSO and then diluted in demineralized water to the concentration of 1 mM. […] All measurements were carried in triplicates and the average values of reaction rate (v0-uninhibited reaction, vi-inhibited reaction) were used for construction of the dependence v0/vi vs. concentration of inhibitor. From obtained equation of regression curve, IC50 values were calculated.
(§4) Acetylcholinesterase used was obtained from electric eel (Electrophorus electricus L.; EeAChE) and butyrylcholinesterase from equine serum (EqBuChE).

[2] = target: T2, BuChE from equine serum (EqBuChE) (Equus caballus, UniProt P81908); experiment: biochemical; conditions: mean ± SD, n = three independent experiments
T2 construct: butyrylcholinesterase from equine serum (EqBuChE); purchased Sigma-Aldrich (Prague, Czech Republic); host or cells: equine serum (natural source)
Method: as §1, §2, §3, §4

[3] = tested on: M. kansasii 235/80 and M. kansasii 6509/96; experiment: In vitro antimycobacterial activity (MIC); assay type: cell-based; conditions: Mycobacterium kansasii, read-out: MIC M. kansasii
[4] = tested on: Mycobacterium tuberculosis 331/88 (H37Rv); experiment: In vitro antimycobacterial activity (MIC); assay type: cell-based; conditions: read-out: MIC M. tuberculosis
[5] = tested on: M. tuberculosis 331/88, M. avium 330/88, M. kansasii 235/80, M. kansasii 6509/96; experiment: In vitro antimycobacterial activity (MIC), whole panel, strain not specified; assay type: cell-based; conditions: panel of four mycobacterial strains; read-out: MIC (mycobacteria, strain not specified)
[6] = tested on: MonoMac6 cells; experiment: Cytostatic activity, MTT assay; assay type: cell-based, human; conditions: MonoMac6, at a concentration of 100 µM
Method: (§5) Since compounds containing trifluoromethyl group has been known for their toxic action on eukaryotic cells and approved as anticancer drugs, we investigated cytostatic properties of the derivatives 2–4 using human hepatocellular carcinoma (HepG2) and monocyte (MonoMac6) cell lines. […] The remaining compounds have no cytostatic effect up to 50 µM. Higher concentrations were not investigated due to solubility problems, i.e., precipitation of crystals. […]
(§6) The cell viability was determined by 3-(4,5-dimethylthiazol-2-yl)-2,5-diphenyltetrazolium bromide (MTT) assay. […] The obtained formazan crystals were dissolved in 100 μL of DMSO and the optical density (OD) of the samples was measured at λ = 540 and 620 nm, respectively, employing an ELISA reader (iEMS Reader, Labsystems, Helsinki, Finland). OD620 values were subtracted from OD540 values and the percent of cytostasis was calculated using the following equation:Cytostatic effect (%) = [1 − (ODtreated/ODcontrol)] × 100 where ODtreated and ODcontrol correspond to the optical densities of the treated and the control cells, respectively). […]

[7] = tested on: HepG2 cells; experiment: Cytostatic activity, MTT assay; assay type: cell-based, human; conditions: HepG2, at a concentration of 100 µM
Method: as §5, §6

T2 sequence (P81908 whole entry): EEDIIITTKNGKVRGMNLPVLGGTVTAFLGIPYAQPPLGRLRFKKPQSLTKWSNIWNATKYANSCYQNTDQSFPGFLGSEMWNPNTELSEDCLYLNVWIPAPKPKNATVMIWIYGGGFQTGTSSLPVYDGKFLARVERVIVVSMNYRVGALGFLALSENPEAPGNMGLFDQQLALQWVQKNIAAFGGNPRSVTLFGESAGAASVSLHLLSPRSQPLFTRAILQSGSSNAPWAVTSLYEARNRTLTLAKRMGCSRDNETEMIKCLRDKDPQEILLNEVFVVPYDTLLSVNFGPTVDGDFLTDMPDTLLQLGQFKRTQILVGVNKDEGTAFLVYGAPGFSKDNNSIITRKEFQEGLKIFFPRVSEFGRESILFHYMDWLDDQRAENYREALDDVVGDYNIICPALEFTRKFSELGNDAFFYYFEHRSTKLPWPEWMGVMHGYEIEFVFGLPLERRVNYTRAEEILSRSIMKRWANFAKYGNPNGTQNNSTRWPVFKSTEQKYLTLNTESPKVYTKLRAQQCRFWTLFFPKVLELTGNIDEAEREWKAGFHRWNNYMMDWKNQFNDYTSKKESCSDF
T1 sequence (O42275 24-633): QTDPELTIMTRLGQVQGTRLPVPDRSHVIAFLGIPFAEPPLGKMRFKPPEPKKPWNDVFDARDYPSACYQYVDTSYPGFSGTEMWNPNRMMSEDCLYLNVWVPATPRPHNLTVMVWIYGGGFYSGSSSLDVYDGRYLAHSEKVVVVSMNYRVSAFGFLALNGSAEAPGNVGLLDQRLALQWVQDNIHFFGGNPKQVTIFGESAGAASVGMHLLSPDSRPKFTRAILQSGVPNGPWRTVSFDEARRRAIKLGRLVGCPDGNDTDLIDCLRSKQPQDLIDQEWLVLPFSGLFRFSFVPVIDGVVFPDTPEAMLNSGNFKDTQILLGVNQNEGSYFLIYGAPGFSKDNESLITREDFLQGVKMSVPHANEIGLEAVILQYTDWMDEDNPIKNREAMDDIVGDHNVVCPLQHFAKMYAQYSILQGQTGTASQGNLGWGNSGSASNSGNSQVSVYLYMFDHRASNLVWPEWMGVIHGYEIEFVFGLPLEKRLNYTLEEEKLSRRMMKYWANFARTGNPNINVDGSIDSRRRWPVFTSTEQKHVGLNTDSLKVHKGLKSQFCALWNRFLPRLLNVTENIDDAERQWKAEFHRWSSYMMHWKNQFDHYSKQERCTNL

Structure (SMILES) | IC50 ([1]; read-out: IC50 AChE) [µM] | Selectivity BuChE/AChE (selectivity index, SI) [1] | IC50 ([2]; read-out: IC50 BuChE) [µM] | other results
CCCCCCCCCCCCNC(=O)NNC(=O)c1ccc(C(F)(F)F)cc1 [2l, N-Dodecyl-2-[4-(trifluoromethyl)benzoyl]hydrazine-1-carboxamide] | 45.2 ± 0.69 | 5.8 | 264.14 ± 0.22 | –
CCCCCC(=O)NNC(=O)c1ccc(C(F)(F)F)cc1 [3a, N′-Hexanoyl-4-(trifluoromethyl)benzohydrazide] | 67.1 ± 3.05 | 1.6 | 110 ± 0.2 | MIC [3]: > 250 µM; MIC ([4]; H37RV): 125 µM (≈ 37.8 µg/mL)
CCCCCCCCCCCCCCCNC(=O)NNC(=O)c1ccc(C(F)(F)F)cc1 [2o, N-Pentadecyl-2-[4-(trifluoromethyl)benzoyl]hydrazine-1-carboxamide] | 27 | 8.6 | 233 ± 15.7 | –
CCCCCCCCCCNC(=O)NNC(=O)c1ccc(C(F)(F)F)cc1 [2j, N-Decyl-2-[4-(trifluoromethyl)benzoyl]hydrazine-1-carboxamide] | 49.5 ± 1.74 | 3.9 | 192 ± 6.83 | –
CCCCCCCCCNC(=O)NNC(=O)c1ccc(C(F)(F)F)cc1 [2i, N-Nonyl-2-[4-(trifluoromethyl)benzoyl]hydrazine-1-carboxamide] | 107 | 0.8 | 82.2 ± 3.42 | –
CCCCCCCCCCCNC(=O)NNC(=O)c1ccc(C(F)(F)F)cc1 [2k, 2-[4-(Trifluoromethyl)benzoyl]-N-undecylhydrazine-1-carboxamide] | 40.71 ± 0.37 | 4.4 | 179 ± 2.96 | –
CCCCCCCNC(=O)NNC(=O)c1ccc(C(F)(F)F)cc1 [2g, N-Heptyl-2-[4-(trifluoromethyl)benzoyl]hydrazine-1-carboxamide] | 59.2 ± 2.38 | 1.3 | 79.3 ± 1.53 | –
CCCCCCCCCCCCCCCCNC(=O)NNC(=O)c1ccc(C(F)(F)F)cc1 [2p, N-Hexadecyl-2-[4-(trifluoromethyl)benzoyl]hydrazine-1-carboxamide] | 68.63 ± 0.56 | 2.7 | 187 ± 13.2 | –
CCCCCCNC(=O)NNC(=O)c1ccc(C(F)(F)F)cc1 [2f, N-Hexyl-2-[4-(trifluoromethyl)benzoyl]hydrazine-1-carboxamide] | 49.2 ± 2.36 | 1.5 | 72.5 ± 1.51 | MIC [3]: 250 µM (≈ 82.8 µg/mL); MIC ([4]; H37RV): 250 µM (≈ 82.8 µg/mL)
CCNC(=O)NNC(=O)c1ccc(C(F)(F)F)cc1 [2b, N-Ethyl-2-[4-(trifluoromethyl)benzoyl]hydrazine-1-carboxamide] | 56.32 ± 0.54 | 1.8 | 103 ± 2.75 | MIC [3]: 1000 µM (≈ 275 µg/mL); MIC ([4]; H37RV): 1000 µM (≈ 275 µg/mL)
CCCCCNC(=O)NNC(=O)c1ccc(C(F)(F)F)cc1 [2e, N-Pentyl-2-[4-(trifluoromethyl)benzoyl]hydrazine-1-carboxamide] | 43.59 ± 0.41 | 1.3 | 58 | –
CCCCNC(=O)NNC(=O)c1ccc(C(F)(F)F)cc1 [2d, N-Butyl-2-[4-(trifluoromethyl)benzoyl]hydrazine-1-carboxamide] | 38.6 ± 1.32 | 2.3 | 87.8 ± 7.96 | –
CCCCCCNc1nnc(-c2ccc(C(F)(F)F)cc2)o1 [compound 4, N-Hexyl-5-[4-(trifluoromethyl)phenyl]-1,3,4-oxadiazol-2-amine] | 71.32 ± 0.63 | 1.7 | 118 ± 1.46 | MIC [5]: ≥ 62.5 µM; MIC [3]: 62.5 to 250 µM (≈ 19.6 to 78.3 µg/mL); MIC ([4]; H37RV): 125 to 250 µM (≈ 39.2 to 78.3 µg/mL)
NNC(=O)c1ccc(C(F)(F)F)cc1 [compound 1, 4-(Trifluoromethyl)benzohydrazide] | – | – | – | IC50 ([2]; IC50 BuChE): 204 ± 2.69 µM; cytostatic action [6]: avoided any cytostatic action; cytostatic action [7]: avoided any cytostatic action
CCCCCCCCNC(=O)NNC(=O)c1ccc(C(F)(F)F)cc1 [2h, N-Octyl-2-[4-(trifluoromethyl)benzoyl]hydrazine-1-carboxamide] | 77 ± 4.75 | 1.3 | 101.3 ± 0.99 | –
CCCCCCCCCCCCCNC(=O)NNC(=O)c1ccc(C(F)(F)F)cc1 [2m, N-Tridecyl-2-[4-(trifluoromethyl)benzoyl]hydrazine-1-carboxamide] | – | 9.6 | 277 ± 10.3 | IC50 ([1]; IC50 AChE): 28.9 ± 0.67 µM; IC50 ([2]; IC50 BuChE): 278 µM
CCCCCCCCCCCCCCNC(=O)NNC(=O)c1ccc(C(F)(F)F)cc1 [2n, N-Tetradecyl-2-[4-(trifluoromethyl)benzoyl]hydrazine-1-carboxamide] | 38.7 ± 1.14 | 6.8 | 262 ± 17.2 | –
CCCCCCCCCCCCCCCC(=O)NNC(=O)c1ccc(C(F)(F)F)cc1 [3b, N′-Palmitoyl-4-(trifluoromethyl)benzohydrazide] | 91.9 ± 6.79 | 1.6 | 148.6 ± 0.36 | –
CNC(=O)NNC(=O)c1ccc(C(F)(F)F)cc1 [2a, N-Methyl-2-[4-(trifluoromethyl)benzoyl]hydrazine-1-carboxamide] | – | 2.7 | – | MIC [3]: 1000 µM (≈ 261 µg/mL); IC50 ([1]; IC50 AChE): 31.2 ± 1.87 µM; IC50 ([2]; IC50 BuChE): 84.2 ± 2.1 µM; MIC ([4]; H37RV): 1000 µM (≈ 261 µg/mL)
NNC(=O)c1ccncc1 [isoniazid, isonicotinoylhydrazide, reference compound] | – | – | – | MIC ([4]; M. tuberculosis 331/88 (H37Rv)): 1 µM (≈ 0.137 µg/mL)
CCCCCCCCCCCCCCCCCCNC(=O)NNC(=O)c1ccc(C(F)(F)F)cc1 [2q, N-Octadecyl-2-[4-(trifluoromethyl)benzoyl]hydrazine-1-carboxamide] | 72.3 ± 2.01 | 2.0 | 146 ± 2.6 | –
CCCNC(=O)NNC(=O)c1ccc(C(F)(F)F)cc1 [2c, N-Propyl-2-[4-(trifluoromethyl)benzoyl]hydrazine-1-carboxamide] | 82.3 ± 3.31 | – | 112.7 ± 0.98 | –
